Measured values as given in article PMC6013238, “Development of novel NEMO-binding domain mimetics for inhibiting IKK/NF-κB activation” (PLoS Biology, 2018).
Values joined by “and” are separate entries in the source; they are usually repeats but may differ in a detail not shown here. Equal entries are not always repeated.

Assays:
mdx mice = assay: Chronic treatment of mdx mice, laminin stain and minimum Feret diameter of myofibers; type: in vivo, mouse; settings: Fig 7F, TA muscle, 4 wk treatment, single mice
Excerpt: Fig 7 NBD mimetics improve muscular pathology and grip strength in mdx mice. (A) Shown is the treatment regimen with NBD mimetics in mdx mice. (B) Hematoxylin–eosin staining of TA muscle from 7-wk-old, treated or untreated mdx mice. Images were taken at magnification of 20×. Representative images were shown for each treatment group. […] (E) TA muscle from 7-wk-old, treated or untreated mdx mice was stained with laminin by IHC to outline myofibers. Overall images of TA muscle were shown on the left side, and the inset panel images were shown on the right side. (F) Quantitation of minimum Feret diameter in centrally and noncentrally nucleated myofibers. (G) Forelimb force determined by grip strength test. Five-wk-old (2 wk post treatment) and 7-wk-old (4 wk post treatment) mdx mice, treated or untreated, were tested for forelimb grip strength. Five sequential tests were performed, and the force was normalized to body weight. Data were shown as mean +/− SEM. Dosages used are as follows: SR12343 (30 mg/kg), SR12460 (30 mg/kg), and 8K-NBD peptide (10 mg/kg). n = 6–7 each group. *P < 0.05, **P < 0.01. Underlying data can be found in S1 Data. eMyHC, embryonic myosin heavy chain; IHC, immunohistochemistry; NBD, NEMO-binding domain; NEMO, NF-κB essential modulator; Pax7, paired box protein 7; qRT-PCR, quantitative real-time polymerase chain reaction; TA, tibialis anterior.
To determine whether SR12343 and SR12460 improve muscle pathology, TA muscle was stained with hematoxylin–eosin to assess inflammatory infiltration, necrosis, central nucleation, and fibrosis. […] In addition, Masson trichrome stain was conducted to further measure muscle fibrosis. Chronic treatment with SR12343 reduced muscle fibrosis (blue) in diaphragm and TA muscle tissues in comparison to control group (Fig 8A & 8B). To further quantitate the extent of inflammation in mdx muscle tissues, diaphragm and TA muscle were immunostained for cluster of differentiation 68 (CD68), a macrophage marker. Treatment with SR12343 reduced the number of CD68^+ cells by almost 50% per myofiber in both diaphragm and TA tissues (Fig 8A & 8B). […] To quantify the average fiber size in an unbiased way, TA muscle was stained with laminin to outline myofibers, and Feret diameter of all myocytes was quantitated in a whole muscle section.
To ensure rigorous quantitation of average fiber size, TA muscle was stained with laminin to outline myofibers. […] Centrally nucleated fibers were determined by first eroding the binary mask of the muscle fibers so that only the central portion of each fiber was present. […] Using the original muscle fiber mask, Feret diameters for centrally nucleated and noncentrally nucleated fibers were then measured.

[1] = Stability time course in FBS media with or without acetonitrile; type: in vitro ADME
Method: (§1) To confirm that the NBD mimetics reduce IKK kinase activity, phosphorylation of IκBα by IKK in response to 10 ng/ml of TNF-α was measured by western blot at 0, 5, and 10 min after stimulation. […] To determine whether the mimetics also reduce NF-κB DNA binding activity, electrophoretic mobility shift assay (EMSA) was conducted both in vitro and in vivo. […] The addition of acetonitrile increased the stability of both ZINC compounds, especially ZINC 5 (Fig 3D).
(§2) Fig 3 Two identified small molecules reduce NF-κB DNA binding activity in vivo and in vitro. (A) Levels of p-IκBα with or without treatment in response to TNF-α were determined by western blot analysis. HEK293 cells were pretreated with DMSO, ZINC12909780 (100 μM), and ZINC5 (100 μM) for 30 min followed by the stimulation of 10 ng/ml of TNF-α for 0, 5, and 10 min. Cell lysates were prepared for immunoblot against p-IκBα. GAPDH was used as a loading control. (B) EMSA analysis detecting NF-κB DNA binding activity was performed in C2C12 myoblasts. Cells were pretreated with 200 μM of DMSO, ZINC12909780, and ZINC5 in serum-free media for 1 h. TNF-α was then added to a final concentration of 10 ng/ml and incubated for 15 min. Nuclear extract was obtained for EMSA analysis. (C) EMSA analysis assessing NF-κB DNA binding activity in vivo was performed with quadriceps from mdx mice. Single-dose ZINC12909780 and ZINC5 at 10 mg/kg was given by i.p. Quadriceps was harvested at 1 h and 2 h post injection for EMSA analysis. (D) The time-course pharmacokinetics of ZINC5 and ZINC12909780 in FBS media or FBS media containing acetonitrile. Underlying data can be found in S1 Data. EMSA, electrophoretic mobility shift assay; HEK293, human embryonic kidney 293 cells; i.p., intraperitoneal; NF-κB, nuclear factor κB; t1/2, half-life; TNF-α; tumor necrosis factor α.

[2] = system: NF-κB DNA binding activity; assay: EMSA of NF-κB DNA binding activity in C2C12 myoblasts; type: cell-based, mouse; settings: 200 μM, 1 h, serum-free media; TNF-α 10 ng/ml 15 min
Method: as §1
as §2, with “Single-dose ZINC12909780 and ZINC5 at 10 mg/kg was given by i.p. Quadriceps was harvested at 1 h and 2 h post injection for EMSA analysis. (D) The time-course pharmacokinetics of ZINC5 and ZINC12909780 in FBS media or FBS media containing acetonitrile. Underlying data can be found in S1 Data. EMSA, electrophoretic mobility shift assay; HEK293, human embryonic kidney 293 cells; i.p., intraperitoneal; NF-κB, nuclear factor κB; t1/2, half-life; TNF-α; tumor necrosis factor α.” left out

With `O=C(CNc1ccc(Cl)cn1)NCCc1cccc(Br)c1` [SR12343] as the compound, how does the “Feret 90's of non-centrally nucleated fibers” value (mdx mice) read?
The value was 30.77 and 40.26 and 44.29 and 46.1.

And the “Feret's of centrally nucleated fibers” value (mdx mice)?
Its value is 29.8 and 35.12 and 37.33 and 39.93.

With `O=C(CNCCc1cc(F)cc(F)c1)Nc1ccc(Cl)cn1` [SR12460] as the compound, how does the “Feret 90's of non-centrally nucleated fibers” value (mdx mice) read?
The value was 42.38 and 57.7 and 50.27 and 41.83 and 37.95.

And the “Feret's of centrally nucleated fibers” value (mdx mice)?
Its value is 36.18 and 50.79 and 43.17 and 46.06 and 34.34.

Which “Stability in cell culture media containing FBS” value [1] does the source give for `O=C(COC(=O)Cc1ccccc1F)Nc1ccc(Cl)cn1` [ZINC5] here?
Its value is “extremely unstable”.

What about the t1/2 ([1]; FBS-media) of the same compound?
Its t1/2 is 1.5 h.

What about the t1/2 ([1]; FBS-media+acetonitrile) of the same compound?
The t1/2 was 10.8 h.

What about the “% remaining” value ([1]; fbs-media+acetonitrile, 15 min) of the same compound?
Its value is 77.2%.

And the “% remaining” value ([1]; fbs-media+acetonitrile, 30 min)?
Its value is 85.8%.

And the “% remaining” value ([1]; fbs-media+acetonitrile, 60 min)?
The value was 86.3%.

What about the “% remaining” value ([1]; fbs-media+acetonitrile, 240 min) of the same compound?
The value was 69.4%.

And the “% remaining” value ([1]; fbs-media, 15 min)?
Its value is 90.8%.

What about the “% remaining” value ([1]; fbs-media, 30 min) of the same compound?
The value was 79.8%.

And the “% remaining” value ([1]; fbs-media, 60 min)?
The value was 61.8%.

And the “% remaining” value ([1]; fbs-media, 240 min)?
Its value is 16.4%.

What about the “TNF-α-induced NF-κB DNA binding activity (EMSA)” value [2] of the same compound?
Its value is “inhibit TNF-α-induced NF-κB DNA binding activity”.

With `Nc1ncccc1C(=O)OCC(=O)Nc1ccc(Cl)cc1F` [ZINC12909780] as the compound, how does the “Stability in cell culture media containing FBS” value [1] read?
The value was “relatively more stable”.

What about the remaining at 0.25 h ([1]; bovine, FBS media containing acetonitrile, fbs-media+acetonitrile, 15 min) of the same compound?
The remaining at 0.25 h was 94.8%.

What about the remaining at 0.5 h ([1]; bovine, FBS media containing acetonitrile, fbs-media+acetonitrile, 30 min) of the same compound?
The remaining at 0.5 h was 103%.

And the remaining at 1 h ([1]; bovine, FBS media containing acetonitrile, fbs-media+acetonitrile, 60 min)?
Its remaining at 1 h is 106%.

And the remaining at 4 h ([1]; bovine, FBS media containing acetonitrile, fbs-media+acetonitrile, 240 min)?
Its remaining at 4 h is 104%.

What about the half-life ([1]; bovine, cell culture media containing FBS, FBS-media) of the same compound?
Its half-life is 15 h.

And the remaining at 0.25 h ([1]; bovine, cell culture media containing FBS, fbs-media, 15 min)?
Its remaining at 0.25 h is 101%.

What about the remaining at 0.5 h ([1]; bovine, cell culture media containing FBS, fbs-media, 30 min) of the same compound?
The remaining at 0.5 h was 105%.

And the remaining at 1 h ([1]; bovine, cell culture media containing FBS, fbs-media, 60 min)?
Its remaining at 1 h is 92%.

And the remaining at 4 h ([1]; bovine, cell culture media containing FBS, fbs-media, 240 min)?
The remaining at 4 h was 85%.

What about the “TNF-α-induced NF-κB DNA binding activity (EMSA)” value [2] of the same compound?
The value was “inhibit TNF-α-induced NF-κB DNA binding activity”.
